For one molecule, IC50 results are on record in PMC3240959 (2011).

Usually IC50 stands for the concentration that gives 50% inhibition.

In the assay the target is T1, PfTrx-2 (Plasmodium falciparum thioredoxin-2, MAL13P1.225) (Plasmodium falciparum, UniProt Q8IDP4).
T1 sequence (Q8IDP4 28-157): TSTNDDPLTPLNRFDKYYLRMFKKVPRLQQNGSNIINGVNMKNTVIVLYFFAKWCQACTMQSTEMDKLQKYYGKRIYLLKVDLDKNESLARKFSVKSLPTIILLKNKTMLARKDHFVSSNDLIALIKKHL
In words: insulin reduction. Type of assay: biochemical.

SMILES strings stand for the structures.

Take `O=C(O)CC([S][Au])C(=O)O` (racemic) [ATM, Aurothiomalate]: the IC50 is around 20 µM.
